Data as given in patent US10385096B2, “Pro-Amb reverse turn restricted bioactive peptide analogues” (Council of Scientific & Industrial Research, priority 2016, dated 2019).

How the values were obtained:
[1] = system: AT2 receptor; assay: neurite outgrowth assay in NG108-15 cells (functional activity at the AT2 receptor); format: cell-based; settings: PD 123319 alone (10 μM), 3 days
Protocol: The functional activity of the analogues of the present invention was evaluated at the AT2 receptor, applying a neurite outgrowth assay in NG108-15 [108CC15] (ATCC® HB12317™) cells. […] The signaling pathways involve a sustained increase in Rap1/BRaf/p42/p44mapk activity and activation of the nitric oxide/guanylyl cyclase/cGMP pathway. NG108-15 cells were treated in absence or presence of Ang II and PD 123319, an AT2 receptor antagonist. The cells were plated at the initial density of 3.6×10^4 cells/petri dish (35 mm) and were cultured for 3 days in the absence (−) or presence (+) of 100 nM Ang II, 1 μM analogue 3, analogue 2 and analogue 1 alone or in combination with 10 μM antagonist PD 123,319 or 100 nM AngII. After 3 days of treatment, the cells were examined under a phase contrast microscope and micrographs were taken. Cells with at least one neurite longer than a cell body were counted as a positive neurite outgrowth. Antagonistic effect was established through co-incubation with Ang II resulting in reduced Ang II-induced neurite outgrowth, verifying blockage of the AT2 receptor. […] The number of cells with neurites was expressed as the percentage of the total number in the micrographs (at least 260 cells according to the experiment). […]
NG108-15 [108CC15] […] Cells with at least one neurite longer than a cell body were counted as positive for neurite outgrowth. […]

[2] = system: AT2 receptor; settings: 3-day treatment, undifferentiated NG108-15 cells; reported by Blankley et al; cited from earlier work

| Compound | cell morphology compared to untreated cells [1] | neurite outgrowth in NG108-15 cells (earlier reported) [2] |
| --- | --- | --- |
| Cc1cc(Cn2cnc3c2C[C@@H](C(=O)O)N(C(=O)C(c2ccccc2)c2ccccc2)C3)ccc1N(C)C [PD 123319] | did not alter the morphology | – |
| Asp-Arg-Val-Tyr-Ile-His-Pro-Phe (DRVYIHPF) [Ang II, octapeptide, endogenous substrate for AT1 and AT2 receptors] | – | induces neurite outgrowth |
| CGP-42112A | – | induces neurite outgrowth |
